Measurements reported in ChEMBL document CHEMBL3526027, “Pharmacokinetics, metabolism, and excretion of the antidiabetic agent ertugliflozin (PF-04971729) in healthy male subjects” (Drug Metab Dispos, 2013).

Legend:
[1] = Drug recovery in beagle dog feces treated with [14C]-ertugliflozin at 10 mg/kg, po; assay type: ADME, organism-based, Canis lupus familiaris; parameters: dose 10 mg/kg, route oral; conditions: in vivo
[2] = Drug excretion in healthy human urine treated with [14C]-ertugliflozin at 25 mg, po by HPLC-radiocardiogram analysis; assay type: ADME, organism-based; conditions: in vivo
[3] = Drug excretion in healthy human feces treated with [14C]-ertugliflozin at 25 mg, po by HPLC-radiocardiogram analysis; assay type: ADME, organism-based; conditions: in vivo
Homo sapiens [4] = experiment: Total drug excretion in healthy human treated with [14C]-ertugliflozin at 25 mg, po by HPLC-radiocardiogram analysis; assay type: ADME, organism-based; conditions: in vivo
Plasma [5] = experiment: Drug metabolism in healthy human plasma treated with [14C]-ertugliflozin at 25 mg, po by HPLC-radiocardiogram analysis; assay type: ADME, organism-based; conditions: in vivo
Liver microsome [6] = experiment: Metabolic stability in human liver microsomes assessed as retention time treated with 10 µM ertugliflozin by HPLC analysis
[7] = Oral bioavailability in Sprague-Dawley rat at 2 mg/kg; assay type: ADME, organism-based; conditions: in vivo
[8] = Oral bioavailability in beagle dog at 2 mg/kg; assay type: ADME, organism-based, Canis lupus familiaris; conditions: in vivo
[9] = Terminal elimination half life in human at 0.5 to 300 mg, po; assay type: ADME, organism-based; conditions: in vivo, read-out: beta t1/2 (converted)
[10] = Cmax in healthy human at 25 mg, po; assay type: ADME, organism-based; parameters: dose 25 mg, route oral; conditions: in vivo
[11] = Tmax in healthy human at 25 mg, po; assay type: ADME, organism-based; conditions: in vivo
[12] = AUC (0 to last) in healthy human at 25 mg, po; assay type: ADME, organism-based; parameters: dose 25 mg, time 0 - last, route oral; conditions: plasma
Homo sapiens [13] = experiment: AUC (0 to infinity) in healthy human at 25 mg, po; assay type: ADME, organism-based, Plasma; parameters: dose 25 mg, time infinity, route oral; conditions: in vivo
[14] = Terminal half life in healthy human at 25 mg, po; assay type: ADME, organism-based; conditions: in vivo, read-out: beta t1/2 (converted)
[15] = Total drug excretion in healthy human at 25 mg, po by HPLC-radiocardiogram analysis; assay type: ADME, organism-based; conditions: in vivo, read-out: Drug excretion
[16] = Drug metabolism in healthy human plasma at 25 mg, po by HPLC-radiocardiogram analysis; assay type: ADME, organism-based; conditions: read-out: Drug metabolism
[17] = Drug level in bile duct-cannulated rat bile at 25 mg/kg, po; assay type: ADME, organism-based; parameters: dose 25 mg/kg, route oral; conditions: read-out: Drug uptake
[18] = Drug level in bile duct-cannulated dog bile at 10 mg/kg, po; assay type: ADME, organism-based, Canis lupus familiaris; parameters: dose 10 mg/kg, route oral; conditions: read-out: Drug uptake
Liver microsome [19] = experiment: Metabolic stability in human liver microsomes assessed as retention time at 10 uM by HPLC analysis; conditions: in vitro
Plasma [20] = experiment: Drug level in Sprague-Dawley rat plasma treated with [14C]-ertugliflozin at 25 mg/kg, po; assay type: ADME, organism-based; parameters: dose 25 mg/kg, route oral; conditions: in vivo
Plasma [21] = experiment: Drug level in beagle dog plasma treated with [14C]-ertugliflozin at 10 mg/kg, po; assay type: ADME, organism-based, Canis lupus familiaris; parameters: dose 10 mg/kg, route oral; conditions: in vivo
[22] = Drug level in bile duct-cannulated rat bile treated with [14C]-ertugliflozin at 25 mg/kg, po; assay type: ADME, organism-based; parameters: dose 25 mg/kg, route oral; conditions: in vivo
[23] = Drug level in bile duct-cannulated dog bile treated with [14C]-ertugliflozin at 10 mg/kg, po; assay type: ADME, organism-based, Canis lupus familiaris; parameters: dose 10 mg/kg, route oral; conditions: in vivo
[24] = Drug recovery in beagle dog feces assessed as ertugliflozin-4-O-beta-glucuronide level at 10 mg/kg, po; assay type: ADME, organism-based, Canis lupus familiaris; parameters: dose 10 mg/kg, route oral; conditions: in vivo
Plasma [25] = experiment: Drug metabolism in Sprague-Dawley rat plasma assessed as ertugliflozin-4-O-beta-glucuronide level at 25 mg/kg, po; assay type: ADME, organism-based; parameters: dose 25 mg/kg, route oral; conditions: in vivo
Plasma [26] = experiment: Drug metabolism in Sprague-Dawley rat plasma assessed as ertugliflozin-3-O-beta-glucuronide level at 25 mg/kg, po; assay type: ADME, organism-based; parameters: dose 25 mg/kg, route oral; conditions: in vivo
Plasma [27] = experiment: Drug metabolism in beagle dog plasma assessed as ertugliflozin-4-O-beta-glucuronide level at 10 mg/kg, po; assay type: ADME, organism-based, Canis lupus familiaris; parameters: dose 10 mg/kg, route oral; conditions: in vivo
Plasma [28] = experiment: Drug metabolism in beagle dog plasma assessed as ertugliflozin-3-O-beta-glucuronide level at 10 mg/kg, po; assay type: ADME, organism-based, Canis lupus familiaris; parameters: dose 10 mg/kg, route oral; conditions: in vivo
[29] = Drug recovery in Sprague-Dawley rat feces treated with [14C]-ertugliflozin at 25 mg/kg, po; assay type: ADME, organism-based; parameters: dose 25 mg/kg, route oral; conditions: in vivo

| Compound | Drug recovery [1] [%] | Drug excretion [2] [%] | Drug excretion [3] [%] | Drug excretion (Homo sapiens [4]) [%] | Drug metabolism (Plasma [5]) [%] | Retention_time (Liver microsome [6]) [min] | Retention_time (Liver microsome [19]) [min] | Drug metabolism (Plasma [20]) | Drug metabolism (Plasma [21]) | other results |
| --- | --- | --- | --- | --- | --- | --- | --- | --- | --- | --- |
| CCOc1ccc(C(O)c2cc([C@]34OC[C@](CO)(O3)[C@@H](O)[C@H](O)[C@H]4O)ccc2Cl)cc1 (mixture of isomers) | 7.1 | 0.7 | 1.7 | 2.4 | 2.5 | 27.9 | – | – | – | – |
| CCOc1ccc(Cc2cc([C@]34OC[C@](CO)(O3)[C@@H](O)[C@H](O[C@@H]3O[C@H](C(=O)O)[C@@H](O)[C@H](O)[C@H]3O)[C@H]4O)ccc2Cl)cc1 | – | 31.7 | – | 31.7 | 24.1 | 34.3 | – | metabolite_detected | metabolite_detected | Drug uptake [22]: 16.5%; Drug uptake [23]: 39.2% |
| CCO[14c]1[14cH][14cH][14c](Cc2cc([C@]34OC[C@](CO)(O3)[C@@H](O)[C@H](O)[C@H]4O)ccc2Cl)[14cH][14cH]1.O=C1CC[C@@H](C(=O)O)N1 | – | – | – | – | – | – | 36.4 | – | – | Drug recovery [24]: metabolite_not_detected; Drug metabolism (Plasma [25]): metabolite_detected; Drug metabolism (Plasma [26]): metabolite_detected; Drug metabolism (Plasma [27]): metabolite_detected; Drug metabolism (Plasma [28]): metabolite_detected |

Second part, led by results:

| Drug recovery [1] [%] | Drug excretion [2] [%] | Drug excretion [3] [%] | Drug excretion (Homo sapiens [4]) [%] | Drug metabolism (Plasma [5]) [%] | Retention_time (Liver microsome [6]) [min] | Retention_time (Liver microsome [19]) [min] | Drug metabolism (Plasma [20]) | Drug metabolism (Plasma [21]) | Compound | other results |
| --- | --- | --- | --- | --- | --- | --- | --- | --- | --- | --- |
| – | – | – | – | – | – | 36.4 | – | – | CCOc1ccc(Cc2cc([C@]34OC[C@](CO)(O3)[C@@H](O)[C@H](O)[C@H]4O)ccc2Cl)cc1 [ERTUGLIFLOZIN] | bioavailability [7]: 69%; bioavailability [8]: 94%; half-life [9]: 11 h; Cmax [10]: 490 ng/mL; Tmax [11]: 1 h; AUC(0-t) [12]: 2790 ng·h/mL; AUC (Homo sapiens [13]): 2800 ng·h/mL; half-life [14]: 16.9 h; dose excreted [15]: 35.3%; metabolised [16]: 49.9%; dose excreted [17]: 2.4%; dose excreted [18]: 9.6% |
| – | 5.7 | – | 5.7 | 12.2 | 29.4 | – | metabolite_detected | metabolite_detected | CCOc1ccc(Cc2cc([C@]34OC[C@](CO)(O3)[C@@H](O)[C@H](O)[C@H]4O[C@@H]3O[C@H](C(=O)O)[C@@H](O)[C@H](O)[C@H]3O)ccc2Cl)cc1 | – |
| 8.7 | 0.4 | 1 | 1.4 | 1.3 | 27.2 | – | – | – | OC[C@@]12CO[C@@](c3ccc(Cl)c(Cc4ccc(O)cc4)c3)(O1)[C@H](O)[C@@H](O)[C@@H]2O | Drug recovery [29]: 26.7% |
